Several values for one entry are separate records, joined by “and”; a condition that tells them apart may be missing. Equal entries are not always repeated. Where two headings read alike, the source gives them in different places.

Data set [1] concerns HCV-JFH1-ad. In words: microbe, parasite or virus in culture. The format is cell-based, hepatitis C virus.
In data set [2] the test system is wildtype HCV-Jc1. In words: microbe, parasite or virus in culture. The class given is cell-based, hepatitis C virus.
The subject of data set [3] is HCV-NS3-V55A. The experiment in a line: microbe, parasite or virus in culture. The format is cell-based, hepatitis C virus.
For data set [4], the system named is HCV-NS3-A156S. In words: microbe, parasite or virus in culture. The format is cell-based, hepatitis C virus.
Data set [5] in a line: Cytotoxicity assay (CellTiter-Glo, 24 h). The class given is cell-based. Particulars: human, CC50 (50% loss of viability). Background: ATP-based viability assays read luminescence as a measure of living cells.
In data set [6] the test system is Huh7.5-SGR cells. In words: Cytotoxicity assay (CellTiter-Glo, 24 h). The format is cell-based. Particulars: read-out: CC50 (50% loss of viability), single experiments, individual experiments.

For `CCC[C@H](NC(=O)[C@@H]1[C@H]2CCC[C@H]2CN1C(=O)[C@@H](NC(=O)[C@@H](NC(=O)c1cnccn1)C1CCCCC1)C(C)(C)C)C(=O)C(=O)NC1CC1` [telaprevir, reference compound], the half-maximal inhibitory concentration (IC50) (as a rule, the concentration that inhibits the measured activity by half) in data set [1] (Hepatitis C virus, Huh7.5, read-out: antiviral IC50 (50% reduction in viral titers), average value reported, Huh7.5, MOI 0.1, treated 24 to 48 h post-infection, average of n ≥ 2 experiments) is 0.132 µM; in data set [1] (read-out: antiviral IC50 (50% reduction in viral titers), single experiments, Huh7.5, MOI 0.1, treated 24 to 48 h post-infection, individual experiments), 0.114 µM and 0.091 µM and 0.086 µM and 0.236 µM; in data set [2] (Hepatitis C virus, Huh7.5, read-out: antiviral IC50, wildtype virus, average value reported, Huh7.5, MOI 0.1, treated 24 to 48 h post-infection) it was 0.098 µM; in data set [2] (Hepatitis C virus, Huh7.5, read-out: antiviral IC50, wildtype virus, single experiments, Huh7.5, MOI 0.1, treated 24 to 48 h post-infection), 0.11 µM; in data set [2] (read-out: antiviral IC50, wildtype virus, single experiments, Huh7.5, MOI 0.1, treated 24 to 48 h post-infection) it was 0.072 µM and 0.111 µM; in data set [3] (Hepatitis C virus, Huh7.5, read-out: antiviral IC50, NS3-V55A virus, average value reported, Huh7.5, MOI 0.1, treated 24 to 48 h post-infection), 0.288 µM. Also, the IC50 in data set [3] (Hepatitis C virus, Huh7.5, read-out: antiviral IC50, NS3-V55A virus, single experiments, Huh7.5, MOI 0.1, treated 24 to 48 h post-infection) is 0.19 µM; in data set [3] (read-out: antiviral IC50, NS3-V55A virus, single experiments, Huh7.5, MOI 0.1, treated 24 to 48 h post-infection), 0.304 µM and 0.372 µM; in data set [4] (Hepatitis C virus, Huh7.5, read-out: antiviral IC50, NS3-A156S virus, average value reported, Huh7.5, MOI 0.1, treated 24 to 48 h post-infection), 0.949 µM; in data set [4] (Hepatitis C virus, Huh7.5, read-out: antiviral IC50, NS3-A156S virus, single experiments, Huh7.5, MOI 0.1, treated 24 to 48 h post-infection), 0.756 µM; in data set [4] (read-out: antiviral IC50, NS3-A156S virus, single experiments, Huh7.5, MOI 0.1, treated 24 to 48 h post-infection) it was 1.14 µM. In data set [3] (ratio of IC50 values), the “change in antiviral potency, NS3-V55A vs wildtype” value is 3 fold. Besides, in data set [4] (ratio of IC50 values), the “change in antiviral potency, NS3-A156S vs wildtype” value was determined as 10 fold. The CC50 (as a rule, the concentration at which the toxic effect on the cells reaches its halfway point) at 24 h is 28 µM in data set [5] (average value reported, averaged from n = 2) and 32 µM in data set [5] (single experiments, individual experiments). Further, the 50% cytotoxic concentration (CC50) in data set [6] was > 40 µM and 24 µM.

For the origin of these results see paper PMC6672008, “Small molecule degraders of the hepatitis C virus protease reduce susceptibility to resistance mutations” (Nature Communications, 2019).
